Assays:
[1] = test system: dextran-induced aseptic (exudative) phlogosis in rabbit eye; assay: Anti-inflammatory activity: dextran-induced aseptic (exudative) phlogosis in rabbit eye; format: in vivo; conditions: for eyes without signs of phlogosis out of the total number of eyes treated: 3 drops every 6 hours, 4 treated eyes; for antiinflammatory activity (in words): compared with the corresponding cortisones
Experimental: 9 hyaluronic esters of cortisone, hydrocortisone and fluorocortisone (9 fluorohydrocortisone) identified by the code names HYC1-HYC9 were tested. Table 1 describes these compounds and gives the percentages of the number of carboxylic groups of HY which are esterified with the above corticosteroids, and where applicable the percentage esterified with simple aliphatic alcohols and those salified with alkaline metals (Na):
Aseptic (exudative) phlogosis was induced in 48 rabbits by intraocular injection of dextran (1% in saline, 0.1 ml). The various products were administered by instillation in the right eye (RE) of the rabbits, while in the left eye (LE) only vehicle was instilled.
The treament (3 drops every 6 hours) was begun immediately after the injection of dextran and was continued for 16 days.
Both eyes of each rabbit were observed through a slit lamp. In particular the following were examined: the state of the conjunctiva and corneal epithelium, the anterior chamber (presence of Tyndall effect), state of the iris and of the posterior segment of the eye. With a Goldmann lens, the state of the back of the eye was examined. The presence of signs of inflammation (hyperemia, exudate, cloudiness of the liquids, etc.) was recorded.
Values are expressed as percentages (number of eyes without signs of phlogosis out of the total number of eyes treated). In brackets are the number of treated eyes.

[2] = Absorption and bioavailability: plasma levels of hydrocortisone in rats; format: in vivo, male Sprague-Dawley rats; conditions: s.c.; for average plasmatic level of hydrocortisone: average of 4 values
Experimental: Male Sprague-Dawley rats, with a body weight of 250-350 gr were used, obtained from Charles River-Calco (Como), fed ad libitum with water and compound feed in pellets, with the code name of 4RF 21, produced by "Italiana Mangimi", licensee of Charles River.
Hydrocortisone was administered in the form of sodium hemisuccinate salt at the dose of 1.34 mg/kg (corresponding to 1 mg/kg of hydrocortisone base) by general intravenous route and at the dose of 1.34 mg/kg and 2.68 mg/ kg (corresponding to 2 mg/ kg of hydrocortisone base) by subcutaneouos route (the i.v. route was considered in order to determine the pharmacokinetic parameters which serve as a comparison for the evaluation of absorption of any other administration route).
The three HYC derivatives were administered by subcutaneous route at the dose of 6.5 and 13 mg/kg (doses corresponding to about 1 and 2 mg/kg in hydrocortisone base). […] All the compounds were injected at a constant volume of 1 ml/kg.
After administration, 0.3 ml of blood was drawn from each animal by cardiac puncture in the presence of anticoagulant (sodium heparin).
Blood drawing times were as follows: *15 mins, 30 mins, 60 mins, 120 mins, 180 min, 300 mins, 360 mins, 420 mins, 480 mins (*limited to the intraveneous route).
The hydrocortisone was dosed by radioimmunoassay method (Cortisolo Kit, Biodata, cod. 10394) using iodate tracing. […] The linearity of the method comes between 1 and 1000 ng/ml. The observation limit is 1 ng/ml.
The dosage of the cortisolemia in the rat is not influenced either by the base levels or by the circadian rhythms of this hormone, as the metabolic pattern of the endogenous glucocorticoid hormones in the rat, leads to the production of corticosterone and not cortisol (see E. L. Green: Biology of the laboratory mouse.)
In Table 3 are reported the results of the average plasma levels of hydrocortisone, after i.v. and s.c. injection (1 and 2 mg/kg). […] In Table 4 are reported the pharmacokinetic parameters of cortisol calculated graphically from the plasmatic decline curves. In Table 3 are reported the average levels of cortisol after subcutaneous administration of the three HYC derivatives at doses of 6.5 and 13 mg/kg (corresponding to about 1 and 2 mg/kg in hydrocortisone base). In Table 4 are reported the pharmacokinetic parameters relative to cortisol calculated graphically with the method of residues from the plasma absorption curve of the three HYC products.

[3] = 10 days from start of phlogosis
[4] = 12 days from start of phlogosis
[5] = 14 days from start of phlogosis
[6] = 16 days from start of phlogosis

Compound	eyes without signs of phlogosis out of the total number of eyes treated ([1]; 2 days from start of phlogosis)	eyes without signs of phlogosis out of the total number of eyes treated ([1]; 4 days from start of phlogosis)	eyes without signs of phlogosis out of the total number of eyes treated ([1]; 6 days from start of phlogosis)	eyes without signs of phlogosis out of the total number of eyes treated ([1]; 8 days from start of phlogosis)	eyes without signs of phlogosis out of the total number of eyes treated [1, 3]	eyes without signs of phlogosis out of the total number of eyes treated [1, 4]	eyes without signs of phlogosis out of the total number of eyes treated [1, 5]	eyes without signs of phlogosis out of the total number of eyes treated [1, 6]	further results
(partial) hydrocortisone ester (C21) of hyaluronic acid (HY) [HYC2]	0.0%	0.0%	0.0%	25.0%	50.0%	100.0%	100.0%	100.0%	average plasmatic level of hydrocortisone ([2]; 6.5 mg/kg, 30 min): 27.02 ng/mL; average plasmatic level of hydrocortisone ([2]; 6.5 mg/kg, 60 min): 35.67 ng/mL; average plasmatic level of hydrocortisone ([2]; 6.5 mg/kg, 120 min): 42.32 ng/mL; average plasmatic level of hydrocortisone ([2]; 6.5 mg/kg, 180 min): 37.35 ng/mL; average plasmatic level of hydrocortisone ([2]; 6.5 mg/kg, 300 min): 32.27 ng/mL; average plasmatic level of hydrocortisone ([2]; 6.5 mg/kg, 360 min): 26.96 ng/mL; average plasmatic level of hydrocortisone ([2]; 6.5 mg/kg, 420 min): 24.24 ng/mL; average plasmatic level of hydrocortisone ([2]; 6.5 mg/kg, 480 min): 18.92 ng/mL; average plasmatic level of hydrocortisone ([2]; 13 mg/kg, 30 min): 32.32 ng/mL; average plasmatic level of hydrocortisone ([2]; 13 mg/kg, 60 min): 50.51 ng/mL; average plasmatic level of hydrocortisone ([2]; 13 mg/kg, 120 min): 62.42 ng/mL; average plasmatic level of hydrocortisone ([2]; 13 mg/kg, 180 min): 58.44 ng/mL; average plasmatic level of hydrocortisone ([2]; 13 mg/kg, 300 min): 51.68 ng/mL; average plasmatic level of hydrocortisone ([2]; 13 mg/kg, 360 min): 48.17 ng/mL; average plasmatic level of hydrocortisone ([2]; 13 mg/kg, 420 min): 44.67 ng/mL; average plasmatic level of hydrocortisone ([2]; 13 mg/kg, 480 min): 39.41 ng/mL; Ka ([2]; HYC 6.5 mg/kg): 0.86 h⁻¹
(partial and mixed) ethanol and cortisone ester of hyaluronic acid (HY) [HYC7]	0.0%	0.0%	0.0%	25.0%	50.0%	100.0%	100.0%	100.0%	
(partial and mixed) ethanol and fluorocortisone esters (C21) of hyaluronic acid (HY) [HYC9]	0.0%	0.0%	0.0%	25.0%	25.0%	50.0%	100.0%	100.0%	
(mixed ethanol and cortisone ester (C21) of hyaluronic acid (HY) [HYC4]	0.0%	0.0%	25.0%	50.0%	50.0%	100.0%	100.0%	100.0%	antiinflammatory activity (in words) [1]: most efficient of these derivatives
(partial) fluorocortisone ester (C21) of hyaluronic acid (HY) [HYC3]	0.0%	0.0%	0.0%	25.0%	25.0%	100.0%	100.0%	100.0%	
(mixed) ethanol and fluorocortisone ester (C21) of hyaluronic acid (HY) [HYC6]	0.0%	0.0%	25.0%	50.0%	50.0%	100.0%	100.0%	100.0%	antiinflammatory activity (in words) [1]: most efficient of these derivatives
(partial) cortisone ester C21) of hyaluronic acid (HY) [HYC1]	0.0%	0.0%	0.0%	25.0%	50.0%	50.0%	100.0%	100.0%	
C[C@]12CCC(=O)C=C1CC[C@@H]1[C@@H]2C(=O)C[C@@]2(C)[C@H]1CC[C@]2(O)C(=O)CO [Cortisone, cortisone, reference compound]	0.0%	0.0%	0.0%	0.0%	25.0%	50.0%	100.0%	100.0%	
C[C@]12CCC(=O)C=C1CC[C@H]1[C@@H]3CC[C@](O)(C(=O)CO)[C@@]3(C)C[C@H](O)[C@@]12F [Fluorocortis., 9 fluorohydrocortisone, reference compound]	0.0%	0.0%	0.0%	0.0%	25.0%	50.0%	100.0%	100.0%	
